{
  "source": "patent US6281196A",
  "about": "“Isolation and structural elucidation of the human cancer cell growth inhibitory compound denominated agelagalastatin” (Arizona Board of Regents, priority 2000, dated 2001)",
  "key": {"[1]": {"test_system": "murine melanoma B16", "settings": "cited from earlier work"}, "[2]": {"test_system": "lung NCI-H460", "test": "human cancer cell line growth inhibition, lung NCI-H460", "format": "cell-based", "settings": "drug dose needed to reduce the percent growth to 50%", "description": "(§1) The current cost to develop the necessary data required for lawful marketing of a new drug compound approaches ten million dollars per compound. Economics dictate that such a huge investment be made only when there is a reasonable likelihood that it can be recovered. Absent such a likelihood, there will be no investment and, without investment, the research requisite for the discovery of these potentially life saving compounds will cease. Current research in the control of cancer in the United States is coordinated by the National Cancer Institute (NCI). To determine whether a substance has anti-cancer properties, the NCI has established a systematic protocol. This protocol, which involves the testing of a substance against a standard cell line panel containing 60 human tumor cell lines, has been verified and is accepted in scientific circles. The protocol, and the established statistical means for analyzing the results obtained by the standardized testing are fully described in the literature. […]\n(§2) Each drug is tested at five (5) doses: 100-10-1-0.1-0.01 μg/ml. Percent Growths are calculated for each dose. […]"}, "[3]": {"test_system": "ovary OVCAR-3", "test": "human cancer cell line growth inhibition, ovary OVCAR-3", "format": "cell-based", "settings": "drug dose needed to reduce the percent growth to 50%", "description": "as §1, §2"}, "[4]": {"test_system": "human cancer cell lines (brain SF-295, renal A498, colon KM20L2, melanoma SK-MEL-5, lung NCI-H460, ovarian OVCAR-3)", "test": "in vitro activity against minipanel of human cancer cell lines", "format": "cell-based", "settings": "portion of minipanel including brain SF-295, renal A498, colon KM20L2 and melanoma SK-MEL-5", "description": "as §1, §2"}, "[5]": {"test_system": "L1210 leukemia cell line", "settings": "cited from earlier work"}},
  "data": [
    {"smiles": "CCCCCCCCCCCCCCCCCCCCCCCCCC(=O)N[C@@H](CO[C@H]1O[C@H](CO)[C@H](O)[C@H](O)[C@H]1O)[C@H](O)[C@H](O)CCCCCCCCCCCCCC", "note": "[structural modification (5)]", "values": [
      {"measurement": "in vivo active", "setting": "[1]", "result": "in vivo active"}
    ]},
    {"smiles": "CCCCCCCCCCCCCCCCCCCCCC[C@@H](O)C(=O)N[C@@H](CO[C@H]1O[C@H](CO)[C@H](O)[C@H](O[C@@H]2O[C@@H]([C@@H](O)CO)[C@H](O)[C@H]2O[C@H]2O[C@@H]([C@@H](O)CO)[C@H](O)[C@H]2O)[C@H]1O)[C@H](O)[C@H](O)CCCCCCCCCCC(C)C", "note": "[agelagalastatin]", "values": [
      {"measurement": "GI50", "setting": "[2]", "result": 0.77, "unit": "µg/mL"},
      {"measurement": "GI50", "setting": "[3]", "result": 2.8, "unit": "µg/mL"},
      {"measurement": "in vitro activity", "setting": "[4]", "result": "significant in vitro activity"}
    ]},
    {"smiles": "CN1C(=O)NC2C3NC(=O)c4ccc(Br)n4C3CC21O", "note": "(centres unmarked) [agelastatin A]", "values": [
      {"measurement": "cytotoxic", "setting": "[5]", "result": "cytotoxic"}
    ]}
  ]
}
